Assay results published in publication PMC11822212, “High-throughput screening identifies Aurora kinase B as a critical therapeutic target for Merkel cell carcinoma” (Nature Communications, 2025).
Read-outs that look alike come from different tables or passages of the source.

Assays:
Assay in all cases: qHTS cell viability (CellTiter-Glo, 72 h; primary and follow-up small molecule screen)
Format in all cases: cell-based, human
UISO cells (VN-MCC) = tested on: UISO cells (VN-MCC)
MCC13 cells (VN-MCC) = tested on: MCC13 cells (VN-MCC)
MKL-2 cells (VP-MCC) = tested on: MKL-2 cells (VP-MCC)
MKL-1 cells (VP-MCC) = tested on: MKL-1 cells (VP-MCC)
MCC26 cells (VN-MCC) = tested on: MCC26 cells (VN-MCC)
WAGA cells (VP-MCC) = tested on: WAGA cells (VP-MCC)
[1] = follow-up screen, UISO, replicate 1
[2] = follow-up screen, UISO, replicate 2
[3] = follow-up screen, UISO, replicate 3
[4] = follow-up screen, MCC13, replicate 1
[5] = follow-up screen, MCC13, replicate 2
[6] = follow-up screen, MCC13, replicate 3
[7] = follow-up screen, MKL-2, replicate 1
[8] = follow-up screen, MKL-2, replicate 2
[9] = follow-up screen, MKL-2, replicate 3
[10] = follow-up screen, MKL-1, replicate 1
[11] = follow-up screen, MKL-1, replicate 2
[12] = follow-up screen, MKL-1, replicate 3
[13] = follow-up screen, MCC26, replicate 1
[14] = follow-up screen, MCC26, replicate 2
[15] = follow-up screen, MCC26, replicate 3
[16] = follow-up screen, WAGA, replicate 1
[17] = follow-up screen, WAGA, replicate 2
[18] = follow-up screen, WAGA, replicate 3

SMILES | Area under the dose-response curve (AUC) UISO Replicate 1 (UISO cells (VN-MCC); [1]) | Area under the dose-response curve (AUC) UISO Replicate 2 (UISO cells (VN-MCC); [2]) | Area under the dose-response curve (AUC) UISO Replicate 3 (UISO cells (VN-MCC); [3]) | Area under the dose-response curve (AUC) MCC13 Replicate 1 (MCC13 cells (VN-MCC); [4]) | Area under the dose-response curve (AUC) MCC13 Replicate 2 (MCC13 cells (VN-MCC); [5]) | Area under the dose-response curve (AUC) MCC13 Replicate 3 (MCC13 cells (VN-MCC); [6]) | Area under the dose-response curve (AUC) MKL-2 Replicate 1 (MKL-2 cells (VP-MCC); [7]) | Area under the dose-response curve (AUC) MKL-2 Replicate 2 (MKL-2 cells (VP-MCC); [8]) | Area under the dose-response curve (AUC) MKL-2 Replicate 3 (MKL-2 cells (VP-MCC); [9]) | Area under the dose-response curve (AUC) MKL-1 Replicate 1 (MKL-1 cells (VP-MCC); [10]) | Area under the dose-response curve (AUC) MKL-1 Replicate 2 (MKL-1 cells (VP-MCC); [11]) | Area under the dose-response curve (AUC) MKL-1 Replicate 3 (MKL-1 cells (VP-MCC); [12]) | Area under the dose-response curve (AUC) MCC26 Replicate 1 (MCC26 cells (VN-MCC); [13]) | Area under the dose-response curve (AUC) MCC26 Replicate 2 (MCC26 cells (VN-MCC); [14]) | Area under the dose-response curve (AUC) MCC26 Replicate 3 (MCC26 cells (VN-MCC); [15]) | Area under the dose-response curve (AUC) WAGA Replicate 1 (WAGA cells (VP-MCC); [16]) | Area under the dose-response curve (AUC) WAGA Replicate 2 (WAGA cells (VP-MCC); [17]) | Area under the dose-response curve (AUC) WAGA Replicate 3 (WAGA cells (VP-MCC); [18]) | Area under the dose-response curve (AUC) UISO Replicate 1 (UISO cells (VN-MCC)) | Area under the dose-response curve (AUC) UISO Replicate 2 (UISO cells (VN-MCC)) | also measured
N#CC(=C(/N)Sc1ccccc1N)/C(C#N)=C(\N)Sc1ccccc1N [U-0126] | 414.2 | 403.9 | 361.8 | 475.9 | 463.7 | 403.4 | 434.1 | 447.4 | 479.4 | 488.8 | 473.7 | 468.2 | 467.3 | 454.7 | 472.7 | 550.5 | 484.0 | 458.9 |  |  | 
C[C@H]1CCC/C=C/[C@@H]2C[C@H](OC(=O)CN(C)C)C[C@H]2[C@H](O)/C=C/C(=O)O1 [Breflate] |  |  |  |  |  |  |  |  |  |  |  |  |  |  |  |  |  |  | 287.6 | 297.1 | Area under the dose-response curve (AUC) UISO Replicate 3 (UISO cells (VN-MCC)): 295.8; Area under the dose-response curve (AUC) MCC13 Replicate 1 (MCC13 cells (VN-MCC)): 301.4; Area under the dose-response curve (AUC) MCC13 Replicate 2 (MCC13 cells (VN-MCC)): 313.0; Area under the dose-response curve (AUC) MCC13 Replicate 3 (MCC13 cells (VN-MCC)): 291.5; Area under the dose-response curve (AUC) MKL-2 Replicate 1 (MKL-2 cells (VP-MCC)): 314.0; Area under the dose-response curve (AUC) MKL-2 Replicate 2 (MKL-2 cells (VP-MCC)): 292.1; Area under the dose-response curve (AUC) MKL-2 Replicate 3 (MKL-2 cells (VP-MCC)): 266.7; Area under the dose-response curve (AUC) MKL-1 Replicate 1 (MKL-1 cells (VP-MCC)): 284.7; Area under the dose-response curve (AUC) MKL-1 Replicate 2 (MKL-1 cells (VP-MCC)): 297.0; Area under the dose-response curve (AUC) MKL-1 Replicate 3 (MKL-1 cells (VP-MCC)): 286.8; Area under the dose-response curve (AUC) MCC26 Replicate 1 (MCC26 cells (VN-MCC)): 324.6; Area under the dose-response curve (AUC) MCC26 Replicate 2 (MCC26 cells (VN-MCC)): 334.5; Area under the dose-response curve (AUC) MCC26 Replicate 3 (MCC26 cells (VN-MCC)): 272.7; Area under the dose-response curve (AUC) WAGA Replicate 1 (WAGA cells (VP-MCC)): 298.7; Area under the dose-response curve (AUC) WAGA Replicate 2 (WAGA cells (VP-MCC)): 274.6; Area under the dose-response curve (AUC) WAGA Replicate 3 (WAGA cells (VP-MCC)): 278.0
CN(C(Cc1ccc(O[S+](=O)([O-])c2cccc3cnccc23)cc1)C(=O)N1CCN(c2ccccc2)CC1)[S+](=O)([O-])c1cccc2cnccc12 (stereo not drawn) [KN-62] | 473.7 | 471.7 | 409.6 | 505.2 | 474.1 | 504.9 | 465.4 | 466.3 | 472.5 | 492.0 | 481.7 | 479.5 | 447.5 | 438.4 | 461.3 | 521.5 | 471.3 | 468.9 |  |  | 
CCN(CC)C(=S)SSC(=S)N(CC)CC [Disulfiram] | 247.9 | 258.4 | 254.5 | 436.7 | 415.1 | 342.5 | 243.8 | 235.0 | 298.1 | 287.1 | 274.6 | 256.7 | 398.0 | 401.3 | 322.7 | 389.6 | 433.6 | 454.9 |  |  | 
COc1ccc(OC)c(-c2nnc3ccc(-c4ccc(OC)c(O[C@@H]5CCOC5)c4)nn23)c1 [NCGC00168459-01] | 435.8 | 424.6 | 430.2 | 471.2 | 476.6 | 471.3 | 463.7 | 433.6 | 459.9 | 460.8 | 464.3 | 463.4 | 450.8 | 439.4 | 478.6 | 480.8 | 429.3 | 424.9 |  |  | 
CN(C)c1ccc(C(=C2C=CC(=[N+](C)C)C=C2)c2ccccc2)cc1.CN(C)c1ccc(C(=C2C=CC(=[N+](C)C)C=C2)c2ccccc2)cc1.O=C(O)C(=O)O.O=C([O-])C(=O)O.O=C([O-])C(=O)O [Malachite green oxalate] |  |  |  |  |  |  |  |  |  |  |  |  |  |  |  |  |  |  | 285.6 | 315.1 | Area under the dose-response curve (AUC) UISO Replicate 3 (UISO cells (VN-MCC)): 271.1; Area under the dose-response curve (AUC) MCC13 Replicate 1 (MCC13 cells (VN-MCC)): 284.7; Area under the dose-response curve (AUC) MCC13 Replicate 2 (MCC13 cells (VN-MCC)): 297.6; Area under the dose-response curve (AUC) MCC13 Replicate 3 (MCC13 cells (VN-MCC)): 312.3; Area under the dose-response curve (AUC) MKL-2 Replicate 1 (MKL-2 cells (VP-MCC)): 272.5; Area under the dose-response curve (AUC) MKL-2 Replicate 2 (MKL-2 cells (VP-MCC)): 267.6; Area under the dose-response curve (AUC) MKL-2 Replicate 3 (MKL-2 cells (VP-MCC)): 282.8; Area under the dose-response curve (AUC) MKL-1 Replicate 1 (MKL-1 cells (VP-MCC)): 266.3; Area under the dose-response curve (AUC) MKL-1 Replicate 2 (MKL-1 cells (VP-MCC)): 258.0; Area under the dose-response curve (AUC) MKL-1 Replicate 3 (MKL-1 cells (VP-MCC)): 280.5; Area under the dose-response curve (AUC) MCC26 Replicate 1 (MCC26 cells (VN-MCC)): 302.0; Area under the dose-response curve (AUC) MCC26 Replicate 2 (MCC26 cells (VN-MCC)): 333.8; Area under the dose-response curve (AUC) MCC26 Replicate 3 (MCC26 cells (VN-MCC)): 303.0; Area under the dose-response curve (AUC) WAGA Replicate 1 (WAGA cells (VP-MCC)): 353.3; Area under the dose-response curve (AUC) WAGA Replicate 2 (WAGA cells (VP-MCC)): 347.4; Area under the dose-response curve (AUC) WAGA Replicate 3 (WAGA cells (VP-MCC)): 369.9
O=C1Nc2cc(Br)ccc2/C1=C1/Nc2ccccc2/C1=N\O [BIO] |  |  |  |  |  |  |  |  |  |  |  |  |  |  |  |  |  |  | 266.6 | 275.6 | Area under the dose-response curve (AUC) UISO Replicate 3 (UISO cells (VN-MCC)): 251.6; Area under the dose-response curve (AUC) MCC13 Replicate 1 (MCC13 cells (VN-MCC)): 481.8; Area under the dose-response curve (AUC) MCC13 Replicate 2 (MCC13 cells (VN-MCC)): 449.1; Area under the dose-response curve (AUC) MCC13 Replicate 3 (MCC13 cells (VN-MCC)): 449.8; Area under the dose-response curve (AUC) MKL-2 Replicate 1 (MKL-2 cells (VP-MCC)): 490.0; Area under the dose-response curve (AUC) MKL-2 Replicate 2 (MKL-2 cells (VP-MCC)): 435.9; Area under the dose-response curve (AUC) MKL-2 Replicate 3 (MKL-2 cells (VP-MCC)): 463.9; Area under the dose-response curve (AUC) MKL-1 Replicate 1 (MKL-1 cells (VP-MCC)): 450.0; Area under the dose-response curve (AUC) MKL-1 Replicate 2 (MKL-1 cells (VP-MCC)): 447.7; Area under the dose-response curve (AUC) MKL-1 Replicate 3 (MKL-1 cells (VP-MCC)): 422.6; Area under the dose-response curve (AUC) MCC26 Replicate 1 (MCC26 cells (VN-MCC)): 419.0; Area under the dose-response curve (AUC) MCC26 Replicate 2 (MCC26 cells (VN-MCC)): 405.4; Area under the dose-response curve (AUC) MCC26 Replicate 3 (MCC26 cells (VN-MCC)): 424.1; Area under the dose-response curve (AUC) WAGA Replicate 1 (WAGA cells (VP-MCC)): 533.5; Area under the dose-response curve (AUC) WAGA Replicate 2 (WAGA cells (VP-MCC)): 491.3; Area under the dose-response curve (AUC) WAGA Replicate 3 (WAGA cells (VP-MCC)): 474.9
